According to patent US7906620B2, “Tumor associated antigen, peptides thereof, and use of same as anti-tumor vaccines” (Yeda Research and Development Co. Ltd., priority 2002, dated 2011):

Tests used:
EL-4-HHD target cells = test: Immunogenicity in HHD mice after immunization with single peptide-loaded RMAS-HHD-B7.1 cells; assay type: in vivo; details: single peptide immunization i.p. three times; E:T 100:1 to 12.5:1
Procedure: FIGS. 14A and 14B are graphs showing immunogenicity of PAP-3 (FIG. 14A) and STEAP-3 (FIG. 14B) peptides in HHD mice. Mice immunized i.p. three times at 7-day intervals, with 2×10^6 irradiated (5000 rad) were single peptide-loaded (PAP-3 for FIG. 14A, STEAP-3 for FIG. 14B) TAP-2 deficient RMAS-HHD-B7.1 cells. Spleens were removed on day 10, and splenocytes were restimulated in vitro by 100 μM PAP-3 or STEAP-3 peptides in OPTIMEM for 2 h at 37° C., 5% CO2, followed by restimulation of lymphocytes for 4 more days in RPMI-HEPES, as described. CTL assays were performed on day 5 with PAP-3 or STEAP-3 loaded on EL4-HHD as targets. Unloaded EL4-HHD or non-relevant HIV derived peptide-loaded EL4-HHD cells were used as negative controls. The effector-to-target ratios of 100:1; 50:1; 25:1; 12.5:1 are shown.
The immunogenicity of the peptides, namely their potential to induce T cell responses, was subsequently examined in an in vivo model. A strain of β2 microglobulin (β2m) HLA-A2.1 Monochain Transgenic, H-2D^b−/−Xβ2m^−/− double knockout mice (HHD mice) was used. Upon vaccination of these mice, a repertoire of human HLA-A2.1 restricted CTLs is produced. The lysis patterns of each of the individual peptides loaded on target cells were first evaluated following immunization with syngeneic dendritic cells pulsed with pools of 2-4 synthetic peptides derived from each examined protein.

T2 cells = test: In vitro priming of human CTL with prostate peptides, cytolytic assay on peptide pulsed T2 cells; assay type: cell-based; details: for existence of peripheral CTL precursors in healthy individuals: peripheral blood of healthy individuals; for activation of CTL precursors in PBMC derived from CaP patients and healthy donors: three healthy and two CaP individuals
Procedure: FIGS. 16A-16D are graphs showing in vitro priming of human CTLs. PBMC of leukopheresis samples were isolated and in vitro CTL primed with peptide pulsed autologous DC. PBMC were supplemented with IL-7 and two days later IL-2 was added and renewed every three days. Additional two cycles of re-stimulation were done every 7 days over peptide pulsed monocytes. Seven days after the last stimulation cytolytic assay was performed using peptide pulsed or non-pulsed T2 cells as target. In FIG. 16A, PBMC derived from CaP individual (donor A) were primed and re-stimulated with STEAP-3 pulsed DC/monocytes. Target cells: relevant (STEAP-3) and non-relevant peptide (HIV-derived, PAP-3) pulsed T2 cells. In FIG. 16B, PBMC derived from healthy individual (donor B) were primed and restimulated with PAP-3 pulsed DC/monocytes. Target cells: relevant (PAP-3) and non-relevant peptide (HIV-derived, STEAP-3) pulsed T2 cells. PBMC derived from healthy individual (donor C) were primed and restimulated with either PAP-3 (C-1; FIG. 16C) or STEAP-3 (C-2; FIG. 16D) pulsed DC/monocytes. Relevant (PAP-3 or STEAP-3) peptide pulsed and non-pulsed T2 cells were used as targets.
FIGS. 17A-17C are graphs showing peptide specific CTL induced in human PBMC by PAP-3 (FIG. 17A), STEAP-3 (FIG. 17B), and PSGR-1 (FIG. 17C). PBMC from a healthy donor were stimulated by peptide pulsed DC as described and CTL activity was tested on homologous peptide pulsed T2 target cells (HLA-A2 lymphoma, TAP deficient).
Finally, peripheral blood of two healthy (donors B, C) and one CaP (donor A) individuals were tested for the existence of CTL precursors (FIGS. 16A-16D). Leukopheresis products of the donors were obtained from Barzilai Medical Center (Ashkelon, Israel) according to Declaration of Helsinki Principles. PBMC were isolated by centrifugation on Ficoll-Plaque Plus gradients (Amersham, Sweden). In vitro priming of CTL was done over autologous DC that were prepared from monocytes by IL-4 and GM-CSF treatment and maturated with a IL-1β, IL-6, TNF-α and PGE2 cocktail. DC were pulsed with synthetic peptides and PBMC were supplemented with IL-7. Two days later, IL-2 was added and renewed every three days. Two additional re-stimulations were done every 7 days over peptide pulsed monocytes. Seven days after the third stimulation, lymphocytes were harvested and a cytolytic assay was performed using relevant/non-relevant peptide pulsed or non-pulsed at all T2 cells.
When human PBMC are stimulated in vitro by PAP-3 and STEAP-3 peptides, the resulting CTL can lyse target cells (T2, EL4/HHD) pulsed with PAP-3, STEAP-3 or PSGR-1 and PSGR-6 peptides. (FIGS. 15 and 16). Here, these findings were expanded and peripheral blood of three healthy and two CaP individuals was tested for the existence of CTL precursors against PAP-3, STEAP-3 and PSGR-1 peptides. Leukopheresis products of the donors were obtained from Barzilai Medical Center (Ashkelon, Israel) according to Declaration of Helsinki Principles. PBMC were isolated by centrifugation on Ficoll-Plaque Plus gradients (Amersham, Sweden). In vitro priming of CTL was done over autologous DC that were prepared from monocytes by IL-4 and GM-CSF treatment and matured with a IL-1β, IL-6, TNF-α and PGE2 cocktail. DC were pulsed with synthetic peptides and PBMC were supplemented with IL-7. Two days later, IL-2 was added and renewed every three days. Two additional re-stimulations were done every 7 days over peptide pulsed monocytes. Seven days after the third stimulation, lymphocytes were harvested and a cytolytic assay was performed using relevant/non-relevant peptide pulsed or non-pulsed T2 cells (FIGS. 17A-17C) and LNCaP (high and low HLA expressors) cells as targets (FIGS. 18A-18E). […] Monitoring of HLA-A2-peptide specific CD8+ cells for PAP-3 and STEAP-3 was also performed by MHC-peptide tetramers (tetramers of recombinant HLA-A2.1-beta2 microglobulin single chain with peptides were prepared in collaboration with Dr Yoram Reiter, Technion, Haifa). […]

Row | Sequence | lysis of peptide-loaded EL-4-HHD target cells (EL-4-HHD target cells) | existence of peripheral CTL precursors in healthy individuals (T2 cells) | activation of CTL precursors in PBMC derived from CaP patients and healthy donors (T2 cells) | activation of CTL precursors in PBMC derived from CaP individual (T2 cells; donor A)
1 | ILLWQPIPV (listed as Homo sapiens) [PAP-3, PAP start position 135] | remarkable and dose-dependent lysis | 2 out of 2 | activated CTL precursors | 
2 | LLLGTIHAL (listed as Homo sapiens) [STEAP-3, STEAP start position 262] | remarkable and dose-dependent lysis | 1 out of 2 | activated CTL precursors | activated peripheral CTL precursors
